Data taken from article PMC9019904, “AD Informer Set: Chemical tools to facilitate Alzheimer's disease drug discovery” (Alzheimer's & Dementia : Translational Research & Clinical …, 2022).
Where a SMILES comes first, the peptide text is derived from it. [ ]: non-standard residue; d: D form. The star is where a group is joined. ξ: configuration not given here. ξF = NC(Cc1ccccc1)C(=O)O; Cbz = O=C(OCc1ccccc1)*

Experiments:
[1] = tested on: HMC3 (human microglia) cell line; assay: pHrodo-myelin phagocytosis/cell viability high content imaging assay: viability (cell count, nuclear area, nuclear intensity); settings: for 1. Cell count (% control) / 2. Nuclear Area (% Control) / 3. Nuclear DNA Intensity (% control): 48 hours treatment
Summary of the method: (§1)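 BV2 mouse and HMC3 human microglia were treated with compounds at 10 μM for 48 h, with pHrodo-myelin present for the last 20 h. Viability was imaged as total cell count per well and mean nuclear intensity per cell. Values are means of duplicates, normalized to untreated wells as % control.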

[2] = tested on: BV2 (mouse microglia) cell line; assay: as above; settings: for 1. Cell count (% control) / 2. Nuclear Area (% Control) / 3. Nuclear DNA Intensity (% control): 48 hours treatment
Summary of the method: as §1

[3] = tested on: HMC3 (human microglia) cell line; assay: pHrodo-myelin phagocytosis/cell viability high content imaging assay: phagocytosis signal; format: cell-based
Summary of the method: (§2)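 Cells receive pHrodo-myelin, then are imaged at high content approximately 22 hours later. Phagocytosis signal and viability are captured in the same run. Three measurements are extracted per well.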

[4] = tested on: BV2 (mouse microglia) cell line; assay: as above; format: cell-based
Summary of the method: as §2

[5] = HMC3, compound 10 uM, pHrodo-myelin
[6] = BV2, compound 10 uM, pHrodo-myelin
[7] = HMC3 cells, 10 uM compound, 48 hours treatment, pHrodo-myelin final 20 hours
[8] = BV2 cells, 10 uM compound, 48 hours treatment, pHrodo-myelin final 20 hours

Row | Structure (SMILES) | 1. Cell count (% control) ([1]; HMC3, compound 10 uM) | 2. Nuclear Area (% Control) ([1]; HMC3, compound 10 uM) | 3. Nuclear DNA Intensity (% control) ([1]; HMC3, compound 10 uM) | 1. Cell count (% control) ([2]; BV2, compound 10 uM) | 2. Nuclear Area (% Control) ([2]; BV2, compound 10 uM) | 3. Nuclear DNA Intensity (% control) ([2]; BV2, compound 10 uM) | 4. Phagocytosis (% control) [3, 5] [% control] | 4. Phagocytosis (% control) [4, 6] [% control] | 1. Cell count (% control) ([1]; HMC3 cells, 10 uM compound) | 2. Nuclear Area (% Control) ([1]; HMC3 cells, 10 uM compound) | 3. Nuclear DNA Intensity (% control) ([1]; HMC3 cells, 10 uM compound) | 1. Cell count (% control) ([2]; BV2 cells, 10 uM compound) | 2. Nuclear Area (% Control) ([2]; BV2 cells, 10 uM compound) | 3. Nuclear DNA Intensity (% control) ([2]; BV2 cells, 10 uM compound) | 4. Phagocytosis (% control) [3, 7] [% control] | 4. Phagocytosis (% control) [4, 8] [% control] | cytotoxicity in human microglial cells (cell count < 70% control) ([1]; HMC3, 10 μM, 48 hours, cell count) | cytotoxicity in mouse microglial cells (cell count < 70% control) ([2]; BV2, 10 μM, 48 hours, cell count)
1 | CCOC(=O)c1cccc(CNc2ccc(N(C)C(=O)Nc3ccccc3)cc2)c1 [UNC10302705A] | 79.1 | 96.2 | 114.6 | 77.7 | 107.2 | 109.9 | 139.7 | 194.2 |  |  |  |  |  |  |  |  |  | 
2 | CC(C)Nc1cc(-c2c[nH]c(C(=O)N[C@H](CO)c3cccc(Cl)c3)c2)c(Cl)cn1 [UNC10302869A] |  |  |  |  |  |  |  |  | 116.3 | 105.5 | 89.1 | 44.0 | 125.5 | 96.6 | 59.0 | 222.2 |  | 
3 | O=c1ccc2c(OCCCCOc3ccccc3)c3ccoc3cc2o1 [UNC10302901A] |  |  |  |  |  |  |  |  | 143.5 | 101.6 | 95.5 | 138.9 | 105.4 | 102.9 | 89.9 | 188.1 |  | 
4 | O=C1CCc2cc(OCCCCc3nnnn3C3CCCCC3)ccc2N1 [UNC10100278A] |  |  |  |  |  |  |  |  | 103.2 | 103.0 | 97.0 | 112.3 | 103.2 | 104.4 | 104.4 | 125.3 |  | 
5 | CCN(C)C(=O)Oc1cccc([C@H](C)N(C)C)c1 [UNC10303091A] |  |  |  |  |  |  |  |  | 141.4 | 98.9 | 95.5 | 139.1 | 103.4 | 100.1 | 80.4 | 166.0 |  | 
6 | Clc1ccccc1C(c1ccccc1)(c1ccccc1)n1ccnc1 [UNC10100375A] | 105.9 | 98.8 | 95.6 | 67.3 | 102.8 | 90.2 | 70.1 | 144.4 |  |  |  |  |  |  |  |  |  | 
7 | Cl.NC(=O)c1cnc(N[C@@H]2CCCC[C@@H]2N)nc1Nc1cccc(-n2nccn2)c1 [UNC10302682A] |  |  |  |  |  |  |  |  | 54.1 | 63.7 | 181.4 | 28.1 | 80.4 | 42.1 | 0.13 | 0.00121 |  | 
8 | Cc1ccc(NC(=O)c2ccc(CN3CCN(C)CC3)cc2)cc1Nc1nc(-c2cccnc2)cs1 [UNC10126573A, masitinib, reference compound] |  |  |  |  |  |  |  |  | 71.0 | 92.7 | 124.1 | 7.7 | 107.9 | 43.3 | 3.5 | 0.0635 | cytotoxicity only in mouse microglia | displayed cytotoxicity only in mouse microglia
9 | CC(C)(C)c1cnc(CSc2cnc(NC(=O)C3CCNCC3)s2)o1 [UNC10302585A] |  |  |  |  |  |  |  |  | 57.0 | 118.9 | 102.8 | 5.4 | 123.4 | 85.3 | 156.3 | 98.5 |  | 
10 | Cc1ccc(S(=O)(=O)O)cc1.Nc1n[nH]cc1-c1cc(Cl)ccc1Oc1cc(F)c(S(=O)(=O)Nc2cscn2)cc1Cl [UNC10303160A] | 135.7 | 95.0 | 100.7 | 121.5 | 103.1 | 99.3 | 74.7 | 124.9 |  |  |  |  |  |  |  |  |  | 
11 | O=C(/C=C/c1ccco1)Nc1ncc(Cc2ccccc2)s1 [UNC10302883A] |  |  |  |  |  |  |  |  | 163.4 | 60.3 | 203.4 | 36.1 | 95.3 | 118.7 | 17.7 | 12.7 |  | 
12 | CC(C)[C@H](NC(=O)OCc1ccccc1)C(=O)NC(C=O)Cc1ccccc1 (stereo partly drawn) [UNC10302675A] (Cbz-Val-[ξF]-aldehyde) |  |  |  |  |  |  |  |  | 109.7 | 102.5 | 106.2 | 117.2 | 102.4 | 114.8 | 106.9 | 144.5 |  | 
13 | Fc1ccc(C(CCCNCC2CCc3[nH]c4ccc(F)cc4c3C2)c2ccc(F)cc2)cc1 (centres unmarked) [UNC10302893A] |  |  |  |  |  |  |  |  | 14.1 | 53.2 | 215.4 | 10.4 | 127.3 | 33.1 | 0.0 | 0.0 |  | 
14 | C=CC(=O)Nc1cc2c(Nc3ccc(F)c(Cl)c3)ncnc2cc1OCCCN1CCOCC1.Cl.Cl [UNC10126563B] |  |  |  |  |  |  |  |  | 45.6 | 65.0 | 201.5 | 25.9 | 92.7 | 52.1 | 0.263 | 4.1 |  | 
15 | COC(=O)C1=C(C)NC2=C(C(=O)c3ccccc32)C1c1ccccc1OCc1ccccc1F (centres unmarked) [UNC10303111A] | 166.8 | 93.9 | 99.7 | 84.0 | 101.6 | 106.1 | 61.6 | 307.3 |  |  |  |  |  |  |  |  |  | 
